# Test results taken from paper PMC7345637, “Characterization of Synthetic Tf2 as a NaV1.3 Selective Pharmacological Probe” (Biomedicines, 2020).
# B1: kurtoxin: scorpion toxin from Parabuthus transvaalicus (protein, UniProt P58910 1-63, looked up)
# Kurtoxin: KIDGYPVDYWNCKRICWYNNKYCNDLCKGLKADSGYCWGWTLSCYCQGLPDNARIKRSGRCRA
# Key:
# C57BL/6J mice = test: Spontaneous pain behaviors after intraplantar injection, wildtype mice; conditions: mouse, in vivo
# Excerpt: For behavioral assessment, we used adult male wildtype or homozygous NaV1.9-deficient (NaV1.9^-/-) mice aged 6–8 weeks (~25g) on a C57BL/6J background. Homozygous Nav1.9 knockout mice on a C57BL/6J background were generated using CRISPR/Cas9 technology by the Queensland Facility for Advanced Genome Editing (The University of Queensland, Australia). In brief, two sgRNAs were designed to target exon 2 of the Scn11a gene. The deletion of exon 2 generated a frame shift mutation resulting in the introduction of stop codons in exon 3. […]
# […]. Mice were then placed individually into polyvinyl boxes (10 × 10 × 10 cm) and recorded by video for 20 min post-injection. The number of spontaneous pain behaviors, including licks, shakes, and flinches, were counted later by a blinded observer. Once spontaneous pain behavior had ceased, mechanical thresholds were assessed using an electronic von Frey apparatus (MouseMet Electronic von Frey, TopCat Metrology, Ely, UK), heat thresholds were assessed using the thermal probe test (MouseMet Thermal), and weight bearing was assessed using the Catwalk XT (Noldus Information Technology, Wageningen, The Netherlands) as previously described. To quantify weight bearing, the parameter ‘mean intensity of the 15 most intense pixels’ was used as a surrogate measure.
# Data were plotted and analyzed by GraphPad Prism, versions 8.2.0 and 8.4.2. […]
# NaV1.1 = conditions: cited from earlier work
# Excerpt: (§1) Selective VGSC modulators remain useful tool compounds for delineating the contribution of particular isoforms to the excitability of neurons in both physiological and pathological states. […] In an attempt to rationally ...
# NaV1.3 = conditions: cited from earlier work
# Excerpt: as §1
# mouse DRG neurons = format: cell-based
# [1] = system: voltage-gated calcium channels (CaV); conditions: cited from earlier work
# Excerpt: Tf2 caused Ca^2+ influx in both small and large mouse adult DRG neurons, which was surprising given NaV1.3 is only expressed at significant levels in embryonic sensory neurons or in adult neurons after axotomy. […] As DRG neurons in this study were isolated from all spinal levels, we cannot rule out the presence of these NaV1.3-expressing neurons in culture. However, given the definitive lack of proteomic evidenc ...
molecule,measurement,setting,value
O=C(Nc1ccc(S(=O)(=O)Nc2nccs2)cc1)C(c1ccccc1)c1ccccc1 [ICA-121431],effect on Tf2-induced spontaneous flinching,C57BL/6J mice,no effect on Tf2-induced spontaneous flinching
same,activity at NaV1.1,NaV1.1,off-target activity at NaV1.1
same,NaV1.3 inhibition,NaV1.3,most potent NaV1.3 inhibitor described to the date
"NC1=N[C@H](O)[C@H]2[C@H]3O[C@]4(O)O[C@@H]([C@@H](O)[C@@]2(N1)[C@@H]4O)[C@]3(O)CO [TTX, tetrodotoxin]",block of Tf2-induced DRG neuron activation,mouse DRG neurons,completely blocked
B1,modulation of voltage-gated calcium channels (CaV),[1],modulate members of the family of voltage-gated calcium channels (CaV)
